Several values for one entry are separate records, joined by “and”; a condition that tells them apart may be missing. Equal values may be shown once. Each block holds one compound with its values, some of them ahead of it.
Experiment: photoluminescence quantum yield (fraction); solvent given as SMILES

SMILES: O=c1cc(C(F)(F)F)c2cc3c4c(c2o1)CCCN4CCC3
photoluminescence quantum yield (in CCC#N): 0.76
photoluminescence quantum yield (in CCCCCCCl): 0.95
photoluminescence quantum yield (in CCCCl): 0.77
photoluminescence quantum yield (in CCO): 0.62
photoluminescence quantum yield (in OCC(F)(F)F): 0.47

SMILES: C(S/C=C/c1ccc(-c2ccc(/C=C/SC=C3CCCC3)cc2)cc1)=C1CCCC1
photoluminescence quantum yield (in ClCCl): 0.182

SMILES: CCC1(CC)c2cc(B(c3c(C)cc(C)cc3C)c3c(C)cc(C)cc3C)ccc2-c2c1c1c(c3c2C(CC)(CC)c2cc(N(c4ccccc4)c4ccccc4)ccc2-3)C(CC)(CC)c2cc(B(c3c(C)cc(C)cc3C)c3c(C)cc(C)cc3C)ccc2-1
photoluminescence quantum yield (in C1CCOC1): 0.2

SMILES: FC(F)(F)c1ccc(-c2ncc3ccccn23)cc1
photoluminescence quantum yield (in ClC(Cl)Cl): 0.04

SMILES: C(=C\c1ccc(-c2ccc(/C=C/c3ccc(-n4c5ccccc5c5ccccc54)cc3)s2)s1)/c1ccc(-n2c3ccccc3c3ccccc32)cc1
photoluminescence quantum yield (in C1CCOC1): 0.1
photoluminescence quantum yield (in CC#N): 0.09
photoluminescence quantum yield (in CC(C)=O): 0.09
photoluminescence quantum yield (in CN(C)C=O): 0.11
photoluminescence quantum yield (in Cc1ccccc1): 0.11

SMILES: CC(=O)c1ccc(NC(=O)c2ccc(N(C)C)cc2)cc1
photoluminescence quantum yield (in C1CCCCC1): 0.0006
photoluminescence quantum yield (in C1CCOC1): 0.0158
photoluminescence quantum yield (in CC#N): 0.0017
photoluminescence quantum yield (in CCOCC): 0.001

SMILES: COc1cc(OC)cc(C2=[O+][B-](F)(F)OC(c3ccc4ccccc4c3)=C2)c1
photoluminescence quantum yield (in CC#N): 0.01
photoluminescence quantum yield (in CC(C)=O): 0.01
photoluminescence quantum yield (in CCCCCC): 0.19
photoluminescence quantum yield (in Cc1ccccc1): 0.1
photoluminescence quantum yield (in ClCCl): 0.05

SMILES: F[Si](c1c2ccccc2cc2ccccc12)(c1c2ccccc2cc2ccccc12)c1c2ccccc2cc2ccccc12
photoluminescence quantum yield (in C1CCOC1): 0.033
photoluminescence quantum yield (in ClC(Cl)Cl): 0.036

SMILES: c1ccc(N(c2ccccc2)c2cc3c4c(c2)N(c2ccccc2)c2cc5c(cc2B4c2ccccc2N3c2ccccc2)B2c3ccccc3N(c3ccccc3)c3cc(N(c4ccccc4)c4ccccc4)cc(c32)N5c2ccccc2)cc1
photoluminescence quantum yield (in Cc1ccccc1): 0.74
photoluminescence quantum yield (in Cc1ccccc1-c1cccc(Oc2cc3c4c(c2)Oc2cc(-c5ccccc5C)ccc2B4c2ccc(-c4ccccc4C)cc2O3)c1): 0.82

SMILES: O=c1c2ccccc2sc2ccc(-n3c4ccccc4c4ccccc43)cc12
photoluminescence quantum yield (in O=P(c1ccccc1)(c1ccccc1)c1ccccc1Oc1ccccc1P(=O)(c1ccccc1)c1ccccc1): 0.512

SMILES: COc1cc2c(cc1-c1ccc(Cl)cc1)Cc1c3c(c4c(c1-2)-c1cc(OC)c(-c2ccc(Cl)cc2)cc1C4)C(=O)N(CCC(C)C)C3=O
photoluminescence quantum yield (in C1CCOC1): 0.52

SMILES: COCCC1=Cc2nc1ccc1[nH]c(cc1CCOC)c1nc(c(O)cc3[nH]c2cc3CCOC)C(CCOC)=C1
photoluminescence quantum yield (in Cc1ccccc1): 0.18

SMILES: O=c1c2cc(F)c(O)cc2oc2cc(O)c(F)cc12
photoluminescence quantum yield (in CCO): 0.26

SMILES: C(#Cc1ccc(N(c2ccc(C#Cc3ccc(-c4cc(-c5ccccc5)nc(-c5ccccc5)c4)cc3)cc2)c2ccc(C#Cc3ccc(-c4cc(-c5ccccc5)nc(-c5ccccc5)c4)cc3)cc2)cc1)c1ccc(-c2cc(-c3ccccc3)nc(-c3ccccc3)c2)cc1
photoluminescence quantum yield (in C1CCOC1): 0.12
photoluminescence quantum yield (in Cc1ccccc1): 0.16

SMILES: CC(C)[Si](C#Cc1c2cc3ccccc3cc2c(C#C[Si](C(C)C)(C(C)C)C(C)C)c2nc3cc4c(cc3nc12)C1c2ccccc2C4c2ccccc21)(C(C)C)C(C)C
photoluminescence quantum yield (in CCCCCC): 0.45
photoluminescence quantum yield (in ClCCl): 0.11

SMILES: C(#Cc1nc(C#Cc2cccs2)c(C#Cc2cccs2)c(C#Cc2cccs2)c1C#Cc1cccs1)c1cccs1
photoluminescence quantum yield (in ClCCl): 0.48

SMILES: Cc1ccc(/C(C#N)=C/c2cc(/C=C(\C#N)c3ccc(C)cc3)c(-c3ccc(N(c4ccccc4)c4ccccc4)cc3)cc2-c2ccc(N(c3ccccc3)c3ccccc3)cc2)cc1
photoluminescence quantum yield (in C1CCCCC1): 0.093
photoluminescence quantum yield (in C1CCOC1): 0.045
photoluminescence quantum yield (in CCCCCC): 0.121
photoluminescence quantum yield (in CCOC(C)=O): 0.049
photoluminescence quantum yield (in Cc1ccccc1): 0.06
photoluminescence quantum yield (in ClC(Cl)Cl): 0.048
photoluminescence quantum yield (in ClCCl): 0.028

SMILES: F[B-]1(F)Oc2c(-c3cccc4c3O[B-](F)(F)[n+]3c(-c5ccccc5)c(-c5ccccc5)n(-c5ccc(C(F)(F)F)cc5)c3-4)cccc2-c2n(-c3ccc(C(F)(F)F)cc3)c(-c3ccccc3)c(-c3ccccc3)[n+]21
photoluminescence quantum yield (in C1CCOC1): 0.68

SMILES: CC(C)(C)OC(=O)CN1CCN(c2ccc3c(-c4ccc(I)cc4)c4ccc(=[N+]5CCN(CC(=O)OC(C)(C)C)CC5)cc-4oc3c2)CC1
photoluminescence quantum yield (in ClCCl): 0.007

SMILES: Cc1ccccc1-c1c2ccc(=[N+]3CCCCC3)cc-2oc2cc(N3CCCCC3)ccc12
photoluminescence quantum yield (in CCO): 0.28
photoluminescence quantum yield (in ClCCl): 0.89

The next lines start with the values.

photoluminescence quantum yield (in C1CCOC1): 0.48
photoluminescence quantum yield (in CC#N): 0.02
photoluminescence quantum yield (in CCO): 0.01
photoluminescence quantum yield (in CCOC(C)=O): 0.4
photoluminescence quantum yield (in CN(C)C=O): 0.03
photoluminescence quantum yield (in ClCCl): 0.25
photoluminescence quantum yield (in c1ccccc1): 0.93
SMILES: O=C(c1ccc(N(c2ccccc2)c2ccccc2)cc1)[C@H]1[C@H](c2ccccc2)C[C@](O)(c2ccccn2)C[C@]1(O)c1ccccn1

photoluminescence quantum yield (in ClCCl): 0.04
SMILES: CCN(CC)c1ccc2c(-c3ccccc3C(=O)O)c3c([o+]c2c1)/C(=C/c1ccc(N(C)C)s1)CCC3

photoluminescence quantum yield (in ClC(Cl)Cl): 0.1
SMILES: Cc1ccc(-c2oc3cccc4c5c(-c6ccc(C)cc6)c(=N)oc6cccc(c2c34)c65)cc1

photoluminescence quantum yield (in C1CCOC1): 0.588
SMILES: c1ccc(-c2nc3c4ccccc4c4ccccc4c3n2-c2ccccc2)cc1

photoluminescence quantum yield (in ClC(Cl)Cl): 0.01
SMILES: CCCCC1(c2ccccc2)Nc2c(-c3ccc(N(C)c4ccccc4)cc3)ccc(-c3ccc(N(C)c4ccccc4)cc3)c2N=C1c1ccccc1 (stereo not drawn)

photoluminescence quantum yield (in ClCCl): 0.04
SMILES: CC(C)(C)NC(=O)c1ccc(F)c2ccc3c4ccccc4c4ccccc4c3c12

photoluminescence quantum yield (in ClCCl): 0.16
SMILES: Fc1ccc(-c2ccc(-c3cc(-c4ccccn4)nc(-c4ccccn4)c3)cc2)c(F)c1

photoluminescence quantum yield (in ClCCl): 0.42
SMILES: Cn1nc(-c2ccccc2)cc1-c1ccccc1

photoluminescence quantum yield (in C1CCOC1): 0.03
SMILES: Cc1cc(C2=C(c3cc(C)sc3C)P(=O)(c3ccccc3)c3ccccc32)c(C)s1 (stereo not drawn)

photoluminescence quantum yield (in C1CCCCC1): 0.11
SMILES: COc1ccc(C2=C(c3ccc(OC)cc3)C(C)(C)c3c2ccc2ccccc32)cc1

photoluminescence quantum yield (in CC#N): 0.5
SMILES: CCCCCCCCCC[n+]1cc2ccc3c[n+](CCCCCCCCCC)cc4ccc(c1)c2c34

photoluminescence quantum yield (in CO): 0.2
SMILES: N#Cc1cccc(-c2nc(-c3ccccc3)c(-c3ccccc3)[nH]2)c1

photoluminescence quantum yield (in CC#N): 0.037
photoluminescence quantum yield (in CS(C)=O): 0.085
photoluminescence quantum yield (in ClCCl): 0.059
SMILES: O=[N+]([O-])c1ccc(-c2nc3c(c4c2-c2ccccc2CC4)-c2ccccc2CC3)cc1

photoluminescence quantum yield (in C1CCCCC1): 0.02
photoluminescence quantum yield (in CO): 0.003
SMILES: Cc1ccc(/C=C/c2nc3ccccc3s2)cc1

photoluminescence quantum yield (in CO): 1
SMILES: COC(=O)COc1ccc(/C=C/C2=[N+]3C(=C(c4ccccc4)c4c(C)cc(C)n4[B-]3(F)F)C(C)=C2)cc1

photoluminescence quantum yield (in CC#N): 0.94
SMILES: COc1ccc(C2=[O+][B-](F)(F)OC(c3ccc4c(c3)Cc3ccccc3-4)=C2)cc1

photoluminescence quantum yield (in C1CCOC1): 0.6
photoluminescence quantum yield (in ClCCl): 0.82
SMILES: CC1=C(C#Cc2ccccc2)C(C)=[N+]2C1=C(c1ccccc1)c1c(C)c(C#Cc3ccccc3)c(C)n1[B-]2(F)F

photoluminescence quantum yield (in CC#N): 0.003
photoluminescence quantum yield (in CCCCCC): 0.003
photoluminescence quantum yield (in CO): 0.003
photoluminescence quantum yield (in c1ccccc1): 0.003 and 0.002
SMILES: O=c1oc2cc3ccccc3cc2nc1-c1ccccc1

photoluminescence quantum yield (in ClC(Cl)Cl): 0.9
SMILES: CCN(CC)c1ccc2cc(-c3cn4cc(OC)ccc4n3)c(=O)oc2c1

photoluminescence quantum yield (in C1COCCO1): 0.11
photoluminescence quantum yield (in CC#N): 0.1
photoluminescence quantum yield (in CC(C)O): 0.16
photoluminescence quantum yield (in CCO): 0.14
photoluminescence quantum yield (in CCOC(C)=O): 0.08
photoluminescence quantum yield (in CN(C)C=O): 0.13
photoluminescence quantum yield (in CO): 0.14
photoluminescence quantum yield (in CS(C)=O): 0.15
photoluminescence quantum yield (in OCC(O)CO): 0.11
photoluminescence quantum yield (in OCCO): 0.21
SMILES: Nc1ncnc2c1c(-c1ccc3ccccc3c1)nn2[C@H]1C[C@H](O)[C@@H](CO)O1

From the Deep4Chem optical property database
